# Experimental data: paper PMC11770821, “Pharmacokinetics and pharmacodynamics of an innovative psychedelic N,N-dimethyltryptamine/harmine formulation in healthy participants: a randomized controlled trial” (International Journal of Neuropsychopharmacology, 2025)
# Experiments:
# [1] = test system: healthy male volunteers; experiment: Undesired drug effects / adverse events questionnaire (y/n and VAS 0–100); type: in vivo, human
# Method: (§1) The participants were monitored with regard to AEs throughout the experiment by the study physician, including questionnaire-based assessments (VAS, 0-100 or y/n) of physical and mental discomfort, breathing difficulties, racing heartbeat, chest or abdominal pains, unpleasant body sensations/muscle pain, headache, nausea, vomiting, and fainting at baseline (−105), 0, 30, 60, 120, 240, and 300 minutes after DMT/placebo administration. Vital signs (systolic/diastolic blood pressure [DBP], heart rate, body temperature [BT]) were assessed using a semiautomatic blood pressure and oral temperature recording device throughout the study at baseline (−45), 0, 30, 120, 150, 210, and 270 minutes after the first DMT/placebo administration.
# [2] = test system: healthy male volunteers; details: in vivo
# Method: as §1
# [3] = 180 min after first intranasal DMT/placebo administration
# [4] = 240 min after first intranasal DMT/placebo administration
# [5] = 300 min after first intranasal DMT/placebo administration
# [6] = −105 min (baseline) relative to first intranasal DMT/placebo administration
smiles,measurement,setting,value
"COc1ccc2c(c1)[nH]c1c(C)nccc12 [Harmine, harmine]","Heart racing, mean intensity [0–100] (SD)",[1]; [3],1 (0)
same,"Heart racing, number of participants reporting",[1]; [3],1
same,"Muscle ache, mean intensity [0–100] (SD)",[1]; [3],16 (14)
same,"Muscle ache, number of participants reporting",[1]; [3],4
same,"Nausea, mean intensity [0–100] (SD)",[1]; [3],1 (0)
same,"Nausea, number of participants reporting",[1]; [3],1
same,"Psychological distress, mean intensity [0–100] (SD)",[1]; [3],9 (0)
same,"Psychological distress, number of participants reporting",[1]; [3],1
same,"Somatic distress, mean intensity [0–100] (SD)",[1]; [3],13 (3)
same,"Somatic distress, number of participants reporting",[1]; [3],4
same,"Stomach ache, mean intensity [0–100] (SD)",[1]; [3],0 (0)
same,"Stomach ache, number of participants reporting",[1]; [3],0
same,"Vomiting, mean intensity [0–100] (SD)",[1]; [3],0 (0)
same,"Vomiting, number of participants reporting",[1]; [3],0
same,"Breathing difficulty, mean intensity [0–100] (SD)",[1]; [4],6 (0)
same,"Breathing difficulty, number of participants reporting",[1]; [4],1
same,"Chest pain, mean intensity [0–100] (SD)",[1]; [4],1 (0)
same,"Chest pain, number of participants reporting",[1]; [4],1
same,"Fainting, mean intensity [0–100] (SD)",[1]; [4],0 (0)
same,"Fainting, number of participants reporting",[1]; [4],0
same,"Head ache, mean intensity [0–100] (SD)",[1]; [4],27 (0)
same,"Head ache, number of participants reporting",[1]; [4],1
same,"Heart racing, mean intensity [0–100] (SD)",[1]; [4],3 (0)
same,"Heart racing, number of participants reporting",[1]; [4],1
same,"Muscle ache, mean intensity [0–100] (SD)",[1]; [4],21 (5)
same,"Muscle ache, number of participants reporting",[1]; [4],3
same,"Nausea, mean intensity [0–100] (SD)",[1]; [4],2 (0)
same,"Nausea, number of participants reporting",[1]; [4],1
same,"Psychological distress, mean intensity [0–100] (SD)",[1]; [4],3 (1)
same,"Psychological distress, number of participants reporting",[1]; [4],2
same,"Somatic distress, mean intensity [0–100] (SD)",[1]; [4],16 (12)
same,"Somatic distress, number of participants reporting",[1]; [4],4
same,"Stomach ache, mean intensity [0–100] (SD)",[1]; [4],32 (44)
same,"Stomach ache, number of participants reporting",[1]; [4],2
same,"Vomiting, mean intensity [0–100] (SD)",[1]; [4],0 (0)
same,"Vomiting, number of participants reporting",[1]; [4],0
same,"Breathing difficulty, mean intensity [0–100] (SD)",[1]; [5],3 (0)
same,"Breathing difficulty, number of participants reporting",[1]; [5],1
same,"Chest pain, mean intensity [0–100] (SD)",[1]; [5],0 (0)
same,"Chest pain, number of participants reporting",[1]; [5],0
same,"Fainting, mean intensity [0–100] (SD)",[1]; [5],0 (0)
same,"Fainting, number of participants reporting",[1]; [5],0
same,"Head ache, mean intensity [0–100] (SD)",[1]; [5],0 (0)
same,"Head ache, number of participants reporting",[1]; [5],0
same,"Heart racing, mean intensity [0–100] (SD)",[1]; [5],49 (0)
same,"Heart racing, number of participants reporting",[1]; [5],1
same,"Muscle ache, mean intensity [0–100] (SD)",[1]; [5],9 (11)
same,"Muscle ache, number of participants reporting",[1]; [5],2
same,"Nausea, mean intensity [0–100] (SD)",[1]; [5],2 (1)
same,"Nausea, number of participants reporting",[1]; [5],2
same,"Psychological distress, mean intensity [0–100] (SD)",[1]; [5],70 (0)
same,"Psychological distress, number of participants reporting",[1]; [5],1
same,"Somatic distress, mean intensity [0–100] (SD)",[1]; [5],12 (5)
same,"Somatic distress, number of participants reporting",[1]; [5],3
same,"Stomach ache, mean intensity [0–100] (SD)",[1]; [5],2 (0)
same,"Stomach ache, number of participants reporting",[1]; [5],1
same,"Vomiting, mean intensity [0–100] (SD)",[1]; [5],0 (0)
same,"Vomiting, number of participants reporting",[1]; [5],0
same,overall safety and tolerability of drug-induced AEs,[1]; in vivo,mild and well tolerated
same,"Breathing difficulty, mean intensity [0–100] (SD)",[1]; [6],12 (15)
same,"Breathing difficulty, number of participants reporting",[1]; [6],2
same,"Chest pain, mean intensity [0–100] (SD)",[1]; [6],0 (0)
same,"Chest pain, number of participants reporting",[1]; [6],0
same,"Fainting, mean intensity [0–100] (SD)",[1]; [6],0 (0)
same,"Fainting, number of participants reporting",[1]; [6],0
same,"Head ache, mean intensity [0–100] (SD)",[1]; [6],8 (7)
same,"Head ache, number of participants reporting",[1]; [6],3
same,"Heart racing, mean intensity [0–100] (SD)",[1]; [6],9 (6)
same,"Heart racing, number of participants reporting",[1]; [6],3
same,"Muscle ache, mean intensity [0–100] (SD)",[1]; [6],11 (9)
same,"Muscle ache, number of participants reporting",[1]; [6],5
same,"Nausea, mean intensity [0–100] (SD)",[1]; [6],6 (0)
same,"Nausea, number of participants reporting",[1]; [6],1
same,"Psychological distress, mean intensity [0–100] (SD)",[1]; [6],13 (8)
same,"Psychological distress, number of participants reporting",[1]; [6],4
same,"Somatic distress, mean intensity [0–100] (SD)",[1]; [6],17 (12)
same,"Somatic distress, number of participants reporting",[1]; [6],7
same,"Stomach ache, mean intensity [0–100] (SD)",[1]; [6],12 (15)
same,"Stomach ache, number of participants reporting",[1]; [6],2
same,"Vomiting, mean intensity [0–100] (SD)",[1]; [6],0 (0)
same,"Vomiting, number of participants reporting",[1]; [6],0
same,change of cardiovascular parameters,[2],no relevant changes
